From patent US20220315534A1, “BETA ADRENERGIC AGONIST AND METHODS OF USING THE SAME” (Curasen Therapeutics, Inc., priority 2019, published 2022) come the findings set out here.

Assay [1] concerns the target T1, β1-adrenergic receptor (B1-AR) (Homo sapiens, UniProt P08588).
T1 construct: expressed in transfected cells
The assay is described as follows: cAMP Gs dynamic HTRF assay, cells expressing β1-adrenergic receptor. It counts as cell-based. The note with it: CHO-K1 (HitHunter) cells; read-out: Average pEC50 [Receptor subtype: B1-AR; Cell type: CHO-K1 (HitHunter)] (converted). On the procedure: (§1) cAMP homogeneous time-resolved fluorescence (HTRF): experimental methods. Compound efficacy is determined using the cAMP Gs dynamic HTRF assay (Cisbio, catalog #62AM4PEC) largely following the manufacturer's instructions, also detailed below.
(§2) Standard serial dilution curves are 10-point, 5-fold dilutions starting from a highest concentration of 10 μM. […] Assay plates are centrifuged at 500×g for 10 seconds. Compounds and IBMX are prepared at 2× final dose to compensate for addition of cells.
(§3) Cell preparation: 1× stimulation buffer, washing PBS (Dulbecco's phosphate-buffered saline, —Mg —Ca; Caisson Labs, catalog #PBL01), assay PBS (Dulbecco's phosphate-buffered saline, +Mg, +Ca; Caisson Labs, catalog #PBL02) and Versene (0.02% EDTA disodium salt solution in PBS without calcium or magnesium; Caisson Labs, catalog #EDL01) are pre-warmed to 37° C. Cells expressing beta-adrenergic receptor were washed in washing PBS to remove growth medium and then released from the surface by incubating with Versene for 5-10 minutes at 37° C. Cells are harvested using assay PBS, counted manually by hemocytometer or by an automated cell counter, pelleted by centrifugation (200×g, 5 minutes) and resuspended in 37° C. 1× stimulation buffer to a final density of […]. 5 μL of the suspended cell solution (7500 cell total) are added to all wells of the 384 well assay plate, the assay plate was covered with an Axygen® plate seal (Corning PCR-SP) and incubated in a humidified 37° C. environment supplemented with 5% CO2 for 30 minutes.
(§4) HTRF reagent addition, reading and data analysis: After 30 minutes of cell stimulation with test compound, the assay plates are centrifuged at 500×g for 10 seconds, and incubation was stopped with the addition of 5 μL cAMP-D2 acceptor, diluted 1:21 in detection and lysis buffer 2 (Cisbio 62CL2FDF) was added to all cells. Subsequently, 5 μL Anti-cAMP-Eu Donor, diluted 1:21 in detection and lysis buffer 2, was added to cells. Plates were sealed and reactions gently ‘vortexed’ at 900 rpm on a Heidolph Titramax 1000 for at least 30 minutes at room temperature. Plates are centrifuged again at 500×g for 10 seconds, and HTRF was measured using a Tecan Spark plate reader at 50 flashes per well. […] Potency estimates (EC50 and pEC50) are derived from the four-parameter nonlinear regression of the concentration-effect curve and an estimate of relative efficacy is determined by comparing the magnitude of the test compound HTRF signal window (min-max dose) with the signal window of the full agonist control, isoproterenol.
For orientation: TR-FRET usually uses a lanthanide donor and a delayed reading to cut background.

Assay [2] deals with T2, β2-adrenergic receptor (B2-AR) (Homo sapiens, UniProt P07550).
T2 construct: expressed in transfected cells
T2 sequence (P07550 whole entry): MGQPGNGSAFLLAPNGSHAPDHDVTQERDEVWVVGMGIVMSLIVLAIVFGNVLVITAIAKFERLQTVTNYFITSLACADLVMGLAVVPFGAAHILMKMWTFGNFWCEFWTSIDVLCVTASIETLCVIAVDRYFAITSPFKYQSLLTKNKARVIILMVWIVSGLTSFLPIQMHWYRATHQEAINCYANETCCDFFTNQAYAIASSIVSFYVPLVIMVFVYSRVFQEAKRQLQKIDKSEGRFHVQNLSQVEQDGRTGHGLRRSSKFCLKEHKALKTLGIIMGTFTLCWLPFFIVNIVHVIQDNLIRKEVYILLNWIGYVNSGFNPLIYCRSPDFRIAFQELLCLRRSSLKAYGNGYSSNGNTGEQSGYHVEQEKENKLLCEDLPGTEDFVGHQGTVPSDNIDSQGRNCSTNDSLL
The experiment in a line: cAMP Gs dynamic HTRF assay, cells expressing β2-adrenergic receptor. It counts as cell-based. Conditions: CHO-K1 (HitHunter) cells; read-out: Average pEC50 [Receptor subtype: B2-AR; Cell type: CHO-K1 (HitHunter)] (converted). On the procedure:
as §1, §2, §3, §4

T1 sequence (P08588 whole entry): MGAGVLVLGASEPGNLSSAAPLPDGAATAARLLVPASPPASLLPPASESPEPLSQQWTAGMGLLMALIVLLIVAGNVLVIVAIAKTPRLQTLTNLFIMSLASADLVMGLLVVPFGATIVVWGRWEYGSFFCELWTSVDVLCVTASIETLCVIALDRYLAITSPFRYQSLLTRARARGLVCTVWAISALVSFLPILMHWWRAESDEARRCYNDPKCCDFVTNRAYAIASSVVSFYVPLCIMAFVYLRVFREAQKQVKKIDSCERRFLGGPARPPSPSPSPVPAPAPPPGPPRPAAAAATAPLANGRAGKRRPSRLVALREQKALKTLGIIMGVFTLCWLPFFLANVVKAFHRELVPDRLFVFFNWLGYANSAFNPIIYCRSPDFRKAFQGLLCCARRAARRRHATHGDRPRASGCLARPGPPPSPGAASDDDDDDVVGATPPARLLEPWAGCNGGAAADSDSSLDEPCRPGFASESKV

With `Cn1c(=O)ccc2c([C@H](O)CNC(C)(C)C)cccc21` [Compound 04-15], the EC50 in assay [1] is over 1000 nM; in assay [2], 100 to 1000 nM.

With `CC(C)(C)NC[C@@H](O)c1ccc2ccc(C(F)(F)F)cc2n1` [Compound 04-136], the values for the EC50 in assay [1] and in assay [2] were over 1000 nM and 100 to 1000 nM, respectively.

For the compound `CC(C)(C)NC[C@@H](O)c1nccc2[nH]ncc12` [Compound 04-145, (R)-2-(tert-butylamino)-1-(1H-pyrazolo[4,3-c]pyridin-4-yl)ethan-1-ol], the EC50 in assay [1] and in assay [2] was over 1000 nM in each case.

For the compound `CC(C)(C)NC[C@@H](O)c1cccc(N)n1` [Compound 02-6], the results for the EC50 in assay [1] and in assay [2] were 100 to 1000 nM and 10 to 100 nM, respectively.

On to `CC(C)(C)NCC(O)c1ccnc2ccccc12` (stereo not drawn) [Compound 04-96], for which the EC50 in assay [1] and in assay [2] was 10 to 100 nM throughout.

Consider `CC(C)(C)NC[C@H](O)c1ccc2c(c1)[nH]c1ncccc12` [Compound 04-128], for which the EC50 in assay [1] is over 1000 nM; in assay [2], 100 to 1000 nM.

With `CC(C)(C)NCC(O)c1ccc2ccc(C(F)(F)F)cc2[n+]1[O-]` (stereo not drawn) [Compound 04-137], the EC50 in assay [1] is 100 to 1000 nM; in assay [2] it was 10 to 100 nM.

For the compound `CC(C)CNC[C@H](O)c1cc(F)cc2[nH]ncc12` [Compound 04-146], the EC50 in assay [1] and in assay [2] was under 10 nM in each case.

Consider `CC(C)(C)NC[C@@H](O)c1cccc2ccc(C(F)(F)F)nc12` [Compound 04-86], for which the EC50 in assay [1] and in assay [2] was 100 to 1000 nM throughout.

On to `Cc1nc(N)c(Cl)cc1[C@@H](O)CNC(C)(C)C` [Compound 02-14], for which the EC50 in assay [1] was 10 to 100 nM; in assay [2], under 10 nM.

With `CC(C)(C)NC[C@H](O)c1ccc2c(n1)NCC2` [Compound 04-11], the EC50 in assay [1] and in assay [2] was 10 to 100 nM each time.

In the case of `CC(C)(C)NC[C@@H](O)c1cccc2oc(=O)ccc12` [Compound 04-14], the EC50 is 100 to 1000 nM in assay [1] and under 10 nM in assay [2].

For the compound `CC(C)(C)NC[C@H](O)c1ccc(F)c2[nH]c(=O)ccc12` [Compound 04-4], the EC50 in assay [1] and in assay [2] was under 10 nM each time.

Regarding `CC(C)(C)NC[C@H](O)c1cccc2[nH]ncc12` [Compound 04-25], the EC50 in assay [1] and in assay [2] was under 10 nM each time.

Take `CC(C)NC[C@H](O)c1cc(F)cc2[nH]ncc12` [Compound 04-149]: the EC50 in assay [1] and in assay [2] was under 10 nM each time.

For `Cc1ccc2cccc([C@H](O)CNC(C)(C)C)c2n1` [Compound 04-87], the EC50 in assay [1] and in assay [2] was 100 to 1000 nM each time.

For `Cn1ncc2c([C@@H](O)CNC(C)(C)C)cccc21` [Compound 04-27], the figures for the EC50 in assay [1] and in assay [2] were under 10 nM and 10 to 100 nM, respectively.

`CC(C)(C)NC[C@H](O)c1cccc2c1C1(CC1)CN2` [Compound 04-120]: the figures for the EC50 in assay [1] and in assay [2] were over 1000 nM and 100 to 1000 nM, respectively.

For `Cc1noc2ccc([C@H](O)CNC(C)(C)C)cc12` [Compound 04-52], the EC50 in assay [1] is 100 to 1000 nM; in assay [2] it was 10 to 100 nM.

For `CC(C)(C)NC[C@H](O)c1c(Cl)ccc2[nH]ncc12` [Compound 04-139], the EC50 in assay [1] and in assay [2] was over 1000 nM in each case.

For the compound `CC(C)(C)NC[C@H](O)c1cccc2ccc(C#N)nc12` [Compound 04-72], the EC50 in assay [1] and in assay [2] was under 10 nM throughout.

As to `CC(C)(C)NC[C@H](O)c1cccc2[nH]ncc12` [Compound 04-153], the figures for the EC50 in assay [1] and in assay [2] were over 1000 nM and 10 to 100 nM, respectively.

Consider `CC(C)(C)NC[C@@H](O)c1ccc(C(F)(F)F)c2cccnc12` [Compound 04-81], for which the EC50 in assay [1] and in assay [2] was 100 to 1000 nM throughout.

For `CC(C)(C)NC[C@H](O)c1cccc2[nH]c3ccccc3c12` [Compound 04-57], the EC50 in assay [1] and in assay [2] was under 10 nM each time.

For the compound `CC(C)(C)NC[C@H](O)c1ncc(O)c2ccccc12` [Compound 04-97], the EC50 in assay [1] and in assay [2] was over 1000 nM throughout.

Regarding `Cc1noc2ccc([C@@H](O)CNC(C)(C)C)cc12` [Compound 04-51], the EC50 in assay [1] and in assay [2] was over 1000 nM throughout.

Turning to `CC(C)(C)NC[C@H](O)c1cccc2c1OC(C)(C)C(=O)N2` [Compound 04-133], the EC50 in assay [1] and in assay [2] was under 10 nM in each case.

Consider `Cc1c[nH]c2nccc([C@@H](O)CNC(C)(C)C)c12` [Compound 04-114], for which the EC50 in assay [1] and in assay [2] was over 1000 nM in each case.

Take `CC(C)(C)NC[C@H](O)c1cccc2[nH]c(=O)oc12` [Compound 04-116]: the EC50 in assay [1] and in assay [2] was under 10 nM throughout.

For the compound `CC(C)(C)NC[C@H](O)c1cccc2[nH]c(=O)ccc12` [Compound 04-1, (R)-5-(2-(tert-butylamino)-1-hydroxyethyl)quinolin-2(1H)-one], the EC50 in assay [1] and in assay [2] was under 10 nM throughout.

Take `CC(C)(C)NC[C@H](O)c1ccc(Cl)c2[nH]ncc12` [Compound 04-108]: the EC50 in assay [1] and in assay [2] was under 10 nM throughout.

Take `CC(C)(C)NC[C@H](O)c1cccc2nccnc12` [Compound 04-75]: the EC50 in assay [1] and in assay [2] was under 10 nM in each case.

`Cc1cc2c([C@@H](O)CNC(C)(C)C)cccc2[nH]c1=O` [Compound 04-18]: the EC50 in assay [1] is under 10 nM; in assay [2] it was 10 to 100 nM.

Take `CC(C)(C)NCC(O)c1cccc2ccccc12` (stereo not drawn) [Compound 04-98]: the EC50 in assay [1] is under 10 nM; in assay [2], 10 to 100 nM.

Consider `CC(C)(C)NC[C@H](O)c1cc(Cl)c2[nH]cnc2c1` [Compound 04-117], for which the EC50 in assay [1] is 100 to 1000 nM; in assay [2], under 10 nM.

As for `CC(C)(C)NC[C@@H](O)c1cccc2cccnc12` [Compound 04-93], the EC50 in assay [1] and in assay [2] was 100 to 1000 nM each time.

In the case of `CC(C)(C)NC[C@H](O)c1ccc(F)c2[nH]c3ccccc3c12` [Compound 04-122], the EC50 in assay [1] and in assay [2] was under 10 nM in each case.

Regarding `CC(C)(C)NC[C@H](O)c1ccc2cccc(Cl)c2n1` [Compound 04-39], the EC50 in assay [1] and in assay [2] was under 10 nM throughout.

As for `COc1ccc(C[C@@H](C)NC[C@H](O)c2ccc3c(n2)NCCO3)cc1` [Compound 04-12], the EC50 is 100 to 1000 nM in assay [1] and 10 to 100 nM in assay [2].

As to `COc1cc([C@@H](O)CNC(C)(C)C)c2cn[nH]c2c1` [Compound 04-154], the EC50 in assay [1] was 100 to 1000 nM; in assay [2], under 10 nM.

Turning to `O[C@H](CNC1(C(F)(F)F)CC1)c1cccc2cccnc12` [Compound 04-68], the EC50 in assay [1] and in assay [2] was over 1000 nM throughout.

As for `Cc1nc(N)c(C#N)cc1[C@@H](O)CNC(C)(C)C` [Compound 02-10], the results for the EC50 in assay [1] and in assay [2] were over 1000 nM and 100 to 1000 nM, respectively.

`CC(C)(C)NC[C@H](O)c1cccc2cn[nH]c12` [Compound 04-26]: the EC50 in assay [1] and in assay [2] was 10 to 100 nM throughout.

For the compound `Cc1nc2cc([C@@H](O)CNC(C)(C)C)ccc2[nH]1` [Compound 04-118], the EC50 in assay [1] and in assay [2] was over 1000 nM each time.

For the compound `COc1ccc([C@@H](O)CNC(C)(C)C)c2cn[nH]c12` [Compound 04-150], the EC50 in assay [1] was 10 to 100 nM; in assay [2] it was under 10 nM.
